For eight compounds, TGI results are on record in PubChem BioAssay (NCI).

Some test systems named below: 786-0 renal; A498 renal; COLO 205 colon; HCC-2998 colon; HOP-62 NSCLC; HS 578T breast; MALME-3M melanoma; MDA-N; OVCAR-3 ovarian; RXF 393 renal; SK-MEL-28 melanoma; SN12C renal; SR leukemia; SW-620 colon; TK-10 renal; U251 CNS; UACC-257 melanoma.
Holding throughout (assay): NCI anticancer screen, dose series, 48 h

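Where inhibition never reached the appropriate level, the endpoint shown equals the highest concentration tested. Otherwise, values were interpolated linearly from a five-concentration, 48-hour dose response in 96-well plates. TGI: concentration producing complete growth inhibition.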 Where a SMILES comes first, the peptide text is derived from it. [ ]: non-standard residue; d: D form. The star is where a group is joined. ξ: configuration not given here. Propanoyl(3-(4-MeO-Ph)) = COc1ccc(CCC(=O)*)cc1; Thr(3ξ) = CC(O)[C@H](N)C(=O)O; dNMeL = CN[C@H](CC(C)C)C(=O)O; OBn = c1ccc(CO*)cc1; ξLac = CC(O)C(=O)O

For `N=c1oc2ccc(Cl)cc2cc1C(=O)NCc1ccccc1`, the TGI was above 100 µM in the experiment with 786-0 renal; above 100 µM with A498 renal; above 100 µM with COLO 205 colon; above 100 µM in the experiment on HCC-2998 colon; above 100 µM in the experiment on HOP-62 NSCLC; above 80.5 µM in the experiment on HS 578T breast. In addition, the TGI with MALME-3M melanoma, in the experiment on MDA-N, in the experiment with OVCAR-3 ovarian, with RXF 393 renal, with SK-MEL-28 melanoma and with SN12C renal was above 100 µM throughout. Further, the TGI in the experiment with SR leukemia, in the experiment on SW-620 colon, with TK-10 renal, in the experiment on U251 CNS and in the experiment on UACC-257 melanoma was above 100 µM throughout.

As to `O=C(N/N=C\c1ccc([N+](=O)[O-])cc1)c1ccccc1Nc1ccccc1C(=O)N/N=C/c1ccc([N+](=O)[O-])cc1`, the TGI with 786-0 renal, in the experiment on A498 renal, in the experiment on COLO 205 colon, in the experiment with HCC-2998 colon, with HOP-62 NSCLC and with HS 578T breast was above 100 µM in each case. Moreover, the TGI in the experiment with MALME-3M melanoma, with MDA-N, in the experiment on OVCAR-3 ovarian, with RXF 393 renal, with SK-MEL-28 melanoma and in the experiment with SN12C renal was above 100 µM throughout. Besides, the TGI in the experiment on SR leukemia, in the experiment with SW-620 colon, with TK-10 renal, in the experiment on U251 CNS and in the experiment with UACC-257 melanoma was above 100 µM in each case.

For the compound `CCN(CC)CCSc1nc2c(c(=N)n1-c1ccccc1)c(=S)n(-c1ccccc1)c(=S)n2-c1ccccc1`, the TGI is 1.55 µM with 786-0 renal; 22.2 µM in the experiment with A498 renal; 3.51 µM in the experiment with COLO 205 colon; 3.15 µM in the experiment with HCC-2998 colon; 8.32 µM with HOP-62 NSCLC; above 90.9 µM with HS 578T breast. Also, the TGI in the experiment with MALME-3M melanoma came to 3.18 µM; with MDA-N, 6.55 µM; in the experiment with OVCAR-3 ovarian, 3.07 µM; in the experiment on RXF 393 renal, 2.78 µM; in the experiment on SK-MEL-28 melanoma, 16.5 µM; with SN12C renal, 3.29 µM. The TGI was 0.936 µM with SR leukemia; above 21.4 µM with SW-620 colon; 3.17 µM in the experiment with TK-10 renal; 6.4 µM with U251 CNS; 3.15 µM with UACC-257 melanoma.

As to `O=C(OCC1CCCN2CCCCC12)c1ccncc1` (stereo unspecified), the TGI in the experiment with 786-0 renal, with A498 renal, in the experiment with COLO 205 colon, in the experiment with HCC-2998 colon, with HOP-62 NSCLC and in the experiment on HS 578T breast was above 100 µM in each case. The TGI with MALME-3M melanoma, in the experiment on MDA-N, with OVCAR-3 ovarian, in the experiment with RXF 393 renal, in the experiment on SK-MEL-28 melanoma and with SN12C renal was above 100 µM in each case. Besides, the TGI in the experiment with SR leukemia, with SW-620 colon, with TK-10 renal, in the experiment on U251 CNS and in the experiment with UACC-257 melanoma was above 100 µM in each case.

As for `CCOP(=O)(OCC)/C(C#N)=C/c1cccn1N(C)C`, the TGI with 786-0 renal, in the experiment on A498 renal, with COLO 205 colon, in the experiment with HCC-2998 colon, with HOP-62 NSCLC and with HS 578T breast was above 100 µM in each case. For the same compound, the TGI with MALME-3M melanoma, in the experiment on MDA-N, in the experiment with OVCAR-3 ovarian, with RXF 393 renal, in the experiment with SK-MEL-28 melanoma and in the experiment with SN12C renal was above 100 µM throughout. Moreover, the TGI in the experiment with SR leukemia, in the experiment with SW-620 colon, in the experiment with TK-10 renal, in the experiment on U251 CNS and with UACC-257 melanoma was above 100 µM throughout.

For `COc1ccc(CCC(=O)OC(C)[C@H](NC(=O)[C@@H](CC(C)C)N(C)C(=O)[C@@H]2CCCN2C(=O)C(C)O)C(=O)OCc2ccccc2)cc1` (stereo partly specified) (H-[ξLac]P[dNMeL][Thr(3ξ)](Propanoyl(3-(4-MeO-Ph)))-OBn), the TGI is above 100 µM with 786-0 renal; above 100 µM in the experiment on A498 renal; 39 µM in the experiment on COLO 205 colon; above 100 µM in the experiment with HCC-2998 colon; above 100 µM in the experiment with HOP-62 NSCLC; 27.8 µM with HS 578T breast. Further, the TGI with MALME-3M melanoma was 45.4 µM; in the experiment with MDA-N, above 100 µM; with OVCAR-3 ovarian it was 73.4 µM; with RXF 393 renal, 44.7 µM; in the experiment with SK-MEL-28 melanoma it was 32.9 µM; with SN12C renal, above 100 µM. For the same compound, the TGI in the experiment on SR leukemia was above 100 µM; in the experiment on SW-620 colon, above 100 µM; with TK-10 renal, above 100 µM; in the experiment on U251 CNS it was above 100 µM; in the experiment with UACC-257 melanoma it was 35.6 µM.

On to `CC1=C(C(=O)Nc2ccccc2)C(c2ccc(C)o2)C(C#N)=C(SCc2ccccc2)N1` (stereo unspecified), for which the TGI with 786-0 renal, with A498 renal, in the experiment on COLO 205 colon, with HCC-2998 colon, in the experiment with HOP-62 NSCLC and in the experiment on HS 578T breast was above 100 µM in each case. The TGI with MALME-3M melanoma is above 100 µM; with MDA-N it was above 92.9 µM; in the experiment on OVCAR-3 ovarian, above 100 µM; in the experiment on RXF 393 renal, above 100 µM; in the experiment on SK-MEL-28 melanoma, above 100 µM; in the experiment with SN12C renal it was above 100 µM. Also, the TGI was above 68.6 µM with SR leukemia; above 100 µM in the experiment on SW-620 colon; above 100 µM in the experiment on TK-10 renal; above 100 µM in the experiment on U251 CNS; above 100 µM with UACC-257 melanoma.

For the compound `O=C(/C=C/c1cccs1)c1cccc(C(=O)/C=C/c2cccs2)n1`, the TGI with 786-0 renal was 38.2 µM; in the experiment on A498 renal, above 100 µM; with COLO 205 colon, above 100 µM; with HCC-2998 colon, above 100 µM; with HOP-62 NSCLC, above 100 µM; in the experiment on HS 578T breast, above 94.8 µM. Moreover, the TGI in the experiment with MALME-3M melanoma was above 100 µM; in the experiment with MDA-N it was above 100 µM; in the experiment on OVCAR-3 ovarian, above 100 µM; in the experiment with RXF 393 renal, above 86.9 µM; in the experiment with SK-MEL-28 melanoma, above 100 µM; in the experiment with SN12C renal, above 58.8 µM. Also, the TGI in the experiment on SR leukemia is above 24.6 µM; in the experiment on SW-620 colon, 15.6 µM; in the experiment on TK-10 renal, above 100 µM; in the experiment with U251 CNS, above 75.8 µM; in the experiment with UACC-257 melanoma it was above 100 µM.
